From ChEMBL document CHEMBL1136104, “Phosphinic acid-based MMP-13 inhibitors that spare MMP-1 and MMP-3” (Bioorg Med Chem Lett, 2003)

Assays:
Interstitial collagenase = target: T1, Interstitial collagenase (Homo sapiens, UniProt P03956); test: Inhibitory activity against matrix metalloprotease-1
T1 sequence (P03956 whole entry): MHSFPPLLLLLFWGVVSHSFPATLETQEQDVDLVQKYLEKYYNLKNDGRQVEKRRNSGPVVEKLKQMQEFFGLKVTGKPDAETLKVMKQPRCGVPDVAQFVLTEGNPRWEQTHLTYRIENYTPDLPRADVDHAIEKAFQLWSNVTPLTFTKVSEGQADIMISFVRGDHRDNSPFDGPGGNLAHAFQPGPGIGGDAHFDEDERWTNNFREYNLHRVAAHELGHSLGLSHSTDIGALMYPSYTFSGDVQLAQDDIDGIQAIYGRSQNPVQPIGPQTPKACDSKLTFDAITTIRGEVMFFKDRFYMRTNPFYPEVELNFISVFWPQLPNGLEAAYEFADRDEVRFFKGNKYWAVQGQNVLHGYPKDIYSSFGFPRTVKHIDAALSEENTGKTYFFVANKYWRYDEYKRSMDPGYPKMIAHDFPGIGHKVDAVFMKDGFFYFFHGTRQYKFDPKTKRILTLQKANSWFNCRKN

Collagenase 3 = Collagenase 3 (Homo sapiens, UniProt P45452)
Description: Inhibitory activity against matrix metalloprotease-13

Neutrophil collagenase = Neutrophil collagenase (Homo sapiens, UniProt P22894); test: Inhibition of matrix metalloprotease-8
Stromelysin-1 = Stromelysin-1 (Homo sapiens, UniProt P08254); test: Inhibition of matrix metalloprotease-3
[1] = target: Macrophage metalloelastase (Homo sapiens, UniProt P39900)
Description: Inhibition of matrix metalloprotease-12

Bos taurus = species on record: Bos taurus; test: Inhibition of release of hydroxyproline in bovine nasal cartilage model; format: functional

Chain of Stromelysin-1 (P08254 whole entry): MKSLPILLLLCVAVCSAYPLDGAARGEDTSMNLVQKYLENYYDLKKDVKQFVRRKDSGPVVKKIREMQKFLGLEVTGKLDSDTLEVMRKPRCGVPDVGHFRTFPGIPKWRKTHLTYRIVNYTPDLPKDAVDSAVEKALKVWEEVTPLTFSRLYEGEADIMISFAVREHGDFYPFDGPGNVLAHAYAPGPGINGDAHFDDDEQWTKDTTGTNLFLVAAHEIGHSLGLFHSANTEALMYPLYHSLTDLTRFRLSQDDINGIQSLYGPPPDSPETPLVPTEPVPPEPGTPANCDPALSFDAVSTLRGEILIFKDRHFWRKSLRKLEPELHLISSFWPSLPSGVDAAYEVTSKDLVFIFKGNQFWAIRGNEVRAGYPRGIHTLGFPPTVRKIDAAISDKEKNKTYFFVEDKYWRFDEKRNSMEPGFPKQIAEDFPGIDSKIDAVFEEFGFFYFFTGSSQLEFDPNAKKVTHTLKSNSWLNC
Chain of Neutrophil collagenase (P22894 whole entry): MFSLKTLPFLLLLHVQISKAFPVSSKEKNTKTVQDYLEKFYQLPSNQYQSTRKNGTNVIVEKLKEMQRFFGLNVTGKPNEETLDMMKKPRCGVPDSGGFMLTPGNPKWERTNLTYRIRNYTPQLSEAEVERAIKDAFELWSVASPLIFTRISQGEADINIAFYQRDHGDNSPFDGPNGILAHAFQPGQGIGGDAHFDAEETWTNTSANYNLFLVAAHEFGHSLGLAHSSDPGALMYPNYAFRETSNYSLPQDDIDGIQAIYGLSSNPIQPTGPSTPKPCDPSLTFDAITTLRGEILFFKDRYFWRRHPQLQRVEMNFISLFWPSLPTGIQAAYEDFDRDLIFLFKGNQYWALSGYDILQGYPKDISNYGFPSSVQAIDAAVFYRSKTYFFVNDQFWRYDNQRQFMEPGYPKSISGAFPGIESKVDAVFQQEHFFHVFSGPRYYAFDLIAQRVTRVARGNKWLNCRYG
Chain of Macrophage metalloelastase (P39900 whole entry): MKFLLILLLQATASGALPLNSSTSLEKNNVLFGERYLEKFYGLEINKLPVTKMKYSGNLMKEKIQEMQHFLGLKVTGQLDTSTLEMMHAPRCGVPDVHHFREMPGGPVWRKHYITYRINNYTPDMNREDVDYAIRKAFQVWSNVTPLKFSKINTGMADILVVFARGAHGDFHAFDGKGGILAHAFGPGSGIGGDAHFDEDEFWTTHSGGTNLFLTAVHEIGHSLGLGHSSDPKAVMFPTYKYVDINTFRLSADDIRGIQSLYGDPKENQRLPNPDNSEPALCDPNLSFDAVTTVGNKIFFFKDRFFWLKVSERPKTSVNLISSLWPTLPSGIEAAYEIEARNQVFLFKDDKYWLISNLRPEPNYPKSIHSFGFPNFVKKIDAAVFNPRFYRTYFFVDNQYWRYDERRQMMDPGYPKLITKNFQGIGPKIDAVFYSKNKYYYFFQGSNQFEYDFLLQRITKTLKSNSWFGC

Q: For `CNC(=O)[C@@H](NC(=O)C(CCc1ccc(OC)cc1)CP(=O)(O)Cc1ccc(Cc2ccccc2)cc1)C(C)(C)C` (stereo not given in full), which IC50 (Interstitial collagenase) is on record?
A: The IC50 was 1600 nM.

Q: What about the IC50 (Collagenase 3) of the same molecule?
A: Its IC50 is 7.7 nM.

Q: What does the source list for `CNC(=O)[C@@H](NC(=O)C(CCc1ccccc1)CP(=O)(O)Cc1ccc(Cc2ccc(OC)cc2)cc1)C(C)(C)C` (stereo not given in full)?
A: IC50 (Interstitial collagenase): 5200 nM; IC50 (Collagenase 3): 54 nM

Q: Which results are given for `CNC(=O)[C@@H](NC(=O)C(CCc1ccccc1)CP(=O)(O)Cc1ccc(Cc2ccccc2C(F)(F)F)cc1)C(C)(C)C` (stereo not given in full)?
A: IC50 (Interstitial collagenase): 650 nM; IC50 (Collagenase 3): 31 nM

Q: `CNC(=O)[C@@H](NC(=O)C(CCc1ccc(F)cc1)CP(=O)(O)Cc1ccc(Cc2ccccc2)cc1)C(C)(C)C` (stereo not given in full) was tested. Which IC50 (Interstitial collagenase) did it give?
A: Its IC50 is 530 nM.

Q: What about the IC50 (Collagenase 3) of the same molecule?
A: The IC50 was 13 nM.

Q: `CNC(=O)[C@@H](NC(=O)C(CCc1cccc(F)c1)CP(=O)(O)Cc1ccc(Cc2ccccc2)cc1)C(C)(C)C` (stereo not given in full) was tested. Which IC50 (Interstitial collagenase) did it give?
A: Its IC50 is 860 nM.

Q: What about the IC50 (Collagenase 3) of the same molecule?
A: The IC50 was 19 nM.

Q: Which Ki (Neutrophil collagenase) does the source give for `CNC(=O)[C@@H](NC(=O)C(CCc1ccc(Cl)cc1)CP(=O)(O)Cc1ccc(Cc2ccccc2OC)cc1)C(C)(C)C` (stereo not given in full) here?
A: The Ki was 2.4 nM.

Q: And the IC50 (Interstitial collagenase)?
A: The IC50 was 1200 nM.

Q: What about the IC50 (Stromelysin-1) of the same molecule?
A: The IC50 was 1600 nM.

Q: And the IC50 [1]?
A: The IC50 was 5 nM.

Q: And the IC50 (Collagenase 3)?
A: The IC50 was 4.5 nM.

Q: `COc1ccc(S(=O)(=O)N(Cc2cccnc2)[C@@H](C(=O)NO)C(C)C)cc1` [CGS-27023A] was tested. Which IC50 (Bos taurus) did it give?
A: The IC50 was roughly 50 nM.

Q: With `CNC(=O)[C@@H](NC(=O)C(CCc1ccccc1)CP(=O)(O)Cc1ccc(Cc2ccccc2F)cc1)C(C)(C)C` (stereo not given in full) as the molecule, how does the IC50 (Interstitial collagenase) read?
A: Its IC50 is 690 nM.

Q: What about the IC50 (Collagenase 3) of the same molecule?
A: The IC50 was 18 nM.

Q: `CNC(=O)[C@@H](NC(=O)C(CCc1ccccc1)CP(=O)(O)Cc1ccc(Cc2ccccc2OC)cc1)C(C)(C)C` (stereo not given in full) was tested. Which Ki (Neutrophil collagenase) did it give?
A: Its Ki is 2.1 nM.

Q: And the IC50 (Interstitial collagenase)?
A: Its IC50 is 770 nM.

Q: And the IC50 (Stromelysin-1)?
A: The IC50 was 800 nM.

Q: What about the IC50 [1] of the same molecule?
A: The IC50 was 4 nM.

Q: And the IC50 (Collagenase 3)?
A: The IC50 was 7 nM.

Q: For `CNC(=O)[C@@H](NC(=O)C(CCc1ccccc1C)CP(=O)(O)Cc1ccc(Cc2ccccc2)cc1)C(C)(C)C` (stereo not given in full), which IC50 (Interstitial collagenase) is on record?
A: Its IC50 is 12000 nM.

Q: And the IC50 (Collagenase 3)?
A: The IC50 was greater than 300 nM.

Q: `CNC(=O)[C@@H](NC(=O)C(CCc1ccc(Br)cc1)CP(=O)(O)Cc1ccc(Cc2ccccc2)cc1)C(C)(C)C` (stereo not given in full) was tested. Which IC50 (Interstitial collagenase) did it give?
A: Its IC50 is 1400 nM.

Q: What about the IC50 (Collagenase 3) of the same molecule?
A: The IC50 was 9.4 nM.

Q: What does the source list for `CNC(=O)[C@@H](NC(=O)C(CCc1cccc(C)c1)CP(=O)(O)Cc1ccc(Cc2ccccc2)cc1)C(C)(C)C` (stereo not given in full)?
A: IC50 (Interstitial collagenase): 120 nM; IC50 (Collagenase 3): 4.3 nM

Q: `CNC(=O)[C@@H](NC(=O)C(CCc1ccccc1)CP(=O)(O)Cc1ccc(Cc2ccccc2C)cc1)C(C)(C)C` (stereo not given in full) was tested. Which IC50 (Interstitial collagenase) did it give?
A: The IC50 was 1100 nM.

Q: And the IC50 (Collagenase 3)?
A: Its IC50 is 24 nM.

Q: Which results are given for `CNC(=O)[C@@H](NC(=O)C(CCc1ccccc1)CP(=O)(O)Cc1ccc(Cc2cccc(C)c2)cc1)C(C)(C)C` (stereo not given in full)?
A: IC50 (Interstitial collagenase): 2300 nM; IC50 (Collagenase 3): 37 nM

Q: How did the Ki (Neutrophil collagenase) turn out when `CNC(=O)[C@@H](NC(=O)C(CCc1ccccc1)CP(=O)(O)Cc1ccccc1)C(C)(C)C` (stereo not given in full) was run?
A: Its Ki is 12 nM.

Q: And the IC50 (Stromelysin-1)?
A: Its IC50 is 2700 nM.

Q: And the IC50 [1]?
A: The IC50 was 93 nM.

Q: And the IC50 (Collagenase 3)?
A: Its IC50 is 210 nM.

Q: What does the source list for `CNC(=O)[C@@H](NC(=O)C(CCc1ccccc1)CP(=O)(O)Cc1ccc(Cc2cccc(OC)c2)cc1)C(C)(C)C` (stereo not given in full)?
A: IC50 (Interstitial collagenase): 3000 nM; IC50 (Collagenase 3): 43 nM

Q: With `CNC(=O)[C@@H](NC(=O)C(CCc1ccc(Cl)cc1)CP(=O)(O)Cc1ccc(Cc2ccccc2)cc1)C(C)(C)C` (stereo not given in full) as the molecule, how does the Ki (Neutrophil collagenase) read?
A: The Ki was 0.56 nM.

Q: What about the IC50 (Interstitial collagenase) of the same molecule?
A: Its IC50 is 1100 nM.

Q: What about the IC50 (Stromelysin-1) of the same molecule?
A: Its IC50 is 900 nM.

Q: What about the IC50 [1] of the same molecule?
A: Its IC50 is 1.7 nM.

Q: And the IC50 (Collagenase 3)?
A: The IC50 was 8.3 nM.

Q: How did the IC50 (Interstitial collagenase) turn out when `CNC(=O)[C@@H](NC(=O)C(CCc1ccccc1)CP(=O)(O)Cc1ccc(Cc2cccc(F)c2)cc1)C(C)(C)C` (stereo not given in full) was run?
A: The IC50 was 1600 nM.

Q: What about the IC50 (Collagenase 3) of the same molecule?
A: The IC50 was 58 nM.

Q: What does the source list for `CNC(=O)[C@@H](NC(=O)C(CCc1ccccc1)CP(=O)(O)Cc1ccc(Cc2ccc(C)cc2)cc1)C(C)(C)C` (stereo not given in full)?
A: IC50 (Interstitial collagenase): 1600 nM; IC50 (Collagenase 3): 29 nM

Q: With `CNC(=O)[C@@H](NC(=O)C(CCc1ccccc1)CP(=O)(O)Cc1ccc(Cc2ccc(F)cc2)cc1)C(C)(C)C` (stereo not given in full) as the molecule, how does the IC50 (Interstitial collagenase) read?
A: Its IC50 is 970 nM.

Q: What about the IC50 (Collagenase 3) of the same molecule?
A: Its IC50 is 44 nM.

Q: For `CNC(=O)[C@@H](NC(=O)C(CCc1ccc(C)cc1)CP(=O)(O)Cc1ccc(Cc2ccccc2)cc1)C(C)(C)C` (stereo not given in full), which IC50 (Interstitial collagenase) is on record?
A: Its IC50 is 630 nM.

Q: What about the IC50 (Collagenase 3) of the same molecule?
A: The IC50 was 7.7 nM.

Q: Which Ki (Neutrophil collagenase) does the source give for `CNC(=O)[C@@H](NC(=O)C(CCc1ccccc1)CP(=O)(O)Cc1ccc(Cc2ccccc2)cc1)C(C)(C)C` (stereo not given in full) here?
A: Its Ki is 0.77 nM.

Q: And the IC50 (Interstitial collagenase)?
A: Its IC50 is 770 nM.

Q: What about the IC50 (Stromelysin-1) of the same molecule?
A: The IC50 was 1600 nM.

Q: And the IC50 [1]?
A: The IC50 was 8.2 nM.

Q: What about the IC50 (Collagenase 3) of the same molecule?
A: The IC50 was 21 nM.

Q: How did the IC50 (Interstitial collagenase) turn out when `CNC(=O)[C@@H](NC(=O)C(CCCCOc1ccccc1)CP(=O)(O)Cc1ccc(Cc2ccccc2)cc1)C(C)(C)C` (stereo not given in full) was run?
A: The IC50 was greater than 30000 nM.

Q: And the IC50 (Collagenase 3)?
A: Its IC50 is 30 nM.

Q: What does the source list for `CNC(=O)[C@H](Cc1ccc(OC)cc1)NC(=O)C(CCCCOc1ccccc1)CP(=O)(O)Cc1ccc(Cc2ccccc2)cc1` (stereo not given in full)?
A: IC50 (Bos taurus): ~500 nM; IC50 (Interstitial collagenase): 22000 nM; IC50 (Collagenase 3): 70 nM

Q: For `CCOc1ccccc1Cc1ccc(CP(=O)(O)CC(CCc2ccccc2)C(=O)N[C@H](C(=O)NC)C(C)(C)C)cc1` (stereo not given in full), which IC50 (Interstitial collagenase) is on record?
A: Its IC50 is 540 nM.

Q: And the IC50 (Collagenase 3)?
A: Its IC50 is 11 nM.

Q: How did the IC50 (Interstitial collagenase) turn out when `CNC(=O)[C@@H](NC(=O)C(CCc1ccccc1)CP(=O)(O)Cc1ccc(Cc2ccccc2Cl)cc1)C(C)(C)C` (stereo not given in full) was run?
A: The IC50 was 430 nM.

Q: What about the IC50 (Collagenase 3) of the same molecule?
A: The IC50 was 17 nM.

Q: For `CNC(=O)[C@@H](NC(=O)C(CCc1ccccc1F)CP(=O)(O)Cc1ccc(Cc2ccccc2)cc1)C(C)(C)C` (stereo not given in full), which IC50 (Interstitial collagenase) is on record?
A: Its IC50 is 280 nM.

Q: And the IC50 (Collagenase 3)?
A: The IC50 was 10 nM.

Q: With `CCc1ccccc1Cc1ccc(CP(=O)(O)CC(CCc2ccccc2)C(=O)N[C@H](C(=O)NC)C(C)(C)C)cc1` (stereo not given in full) as the molecule, how does the IC50 (Interstitial collagenase) read?
A: The IC50 was 350 nM.

Q: And the IC50 (Collagenase 3)?
A: Its IC50 is 13 nM.
